Laboratory results: paper PMC12207590, “Substrate Specificity of the Organic Cation Transporters MATE1 and MATE2K and Functional Overlap with OCT1 and OCT2” (Journal of Medicinal Chemistry, 2025)
Read-outs that look alike come from different tables or passages of the source.

Assays:
[1] = molecular target: T1, MATE1 (Homo sapiens, UniProt Q96FL8); assay: Uptake ratio in MATE1-overexpressing HEK293 cells vs empty vector (2.5 μM, 1 min, HPLC-MS/MS); assay type: cell-based; details: for MATE1 (uptake ratio): mean ratio of uptake in MATE1-overexpressing HEK293 cells vs empty vector
T1 sequence (Q96FL8 1-570): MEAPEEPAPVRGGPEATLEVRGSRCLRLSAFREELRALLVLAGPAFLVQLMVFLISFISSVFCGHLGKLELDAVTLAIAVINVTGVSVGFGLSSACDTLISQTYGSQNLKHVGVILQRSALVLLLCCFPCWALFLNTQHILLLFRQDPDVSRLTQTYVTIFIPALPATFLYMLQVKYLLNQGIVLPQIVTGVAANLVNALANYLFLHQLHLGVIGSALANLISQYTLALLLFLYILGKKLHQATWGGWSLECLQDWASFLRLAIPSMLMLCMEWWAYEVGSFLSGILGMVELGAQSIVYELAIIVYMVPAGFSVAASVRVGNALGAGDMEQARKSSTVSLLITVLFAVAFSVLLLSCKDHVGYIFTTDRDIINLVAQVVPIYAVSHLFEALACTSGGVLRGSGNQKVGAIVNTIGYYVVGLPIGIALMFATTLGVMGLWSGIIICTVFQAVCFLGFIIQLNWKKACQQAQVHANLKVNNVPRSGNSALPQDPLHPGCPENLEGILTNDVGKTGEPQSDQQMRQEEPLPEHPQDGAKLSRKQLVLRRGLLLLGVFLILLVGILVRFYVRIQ

[2] = molecular target: T2, MATE2K (Homo sapiens, UniProt Q86VL8); assay: Uptake ratio in MATE2K-overexpressing HEK293 cells vs empty vector (2.5 μM, 1 min, HPLC-MS/MS); assay type: cell-based; details: for MATE2K ratio: fold uptake over empty vector; for MATE2 (uptake ratio): mean ratio of uptake in MATE2K-overexpressing HEK293 cells vs empty vector
[3] = cited from earlier work
[4] = test system: MATE1, MATE2K, OCT1, OCT2; assay: Substrate specificity and overlap among the four transporters (ratio cutoff 2); assay type: cell-based, human; details: transport ratio cutoff of 2
[5] = molecular target: T2, MATE2K; assay: Concentration-dependent uptake (Michaelis-Menten) via MATE2K in HEK293 cells; details: for Km: read-out: MATE2K KM
[6] = test system: hCMEC; assay: TS DPH hCMEC (Table S2); assay type: cell-based, human; design: scale not given here; details: Table S2
[7] = test system: hCMEC; assay: TS MDAI hCMEC (Table S2); assay type: cell-based, human; design: scale not given here; details: Table S2
[8] = molecular target: T1, MATE1; assay: Concentration-dependent uptake (Michaelis-Menten) via MATE1 in HEK293 cells; details: for Km: read-out: MATE1 KM
[9] = fold uptake over empty vector, 2.5 μM, 1 min
[10] = uptake ratio MATE1-overexpressing vs empty-vector HEK293 cells, 2.5 μM, 1 min, mean
[11] = uptake ratio MATE2K-overexpressing vs empty-vector HEK293 cells, 2.5 μM, 1 min, mean

T2 sequence (Q86VL8 1-566 isoform Q86VL8-3): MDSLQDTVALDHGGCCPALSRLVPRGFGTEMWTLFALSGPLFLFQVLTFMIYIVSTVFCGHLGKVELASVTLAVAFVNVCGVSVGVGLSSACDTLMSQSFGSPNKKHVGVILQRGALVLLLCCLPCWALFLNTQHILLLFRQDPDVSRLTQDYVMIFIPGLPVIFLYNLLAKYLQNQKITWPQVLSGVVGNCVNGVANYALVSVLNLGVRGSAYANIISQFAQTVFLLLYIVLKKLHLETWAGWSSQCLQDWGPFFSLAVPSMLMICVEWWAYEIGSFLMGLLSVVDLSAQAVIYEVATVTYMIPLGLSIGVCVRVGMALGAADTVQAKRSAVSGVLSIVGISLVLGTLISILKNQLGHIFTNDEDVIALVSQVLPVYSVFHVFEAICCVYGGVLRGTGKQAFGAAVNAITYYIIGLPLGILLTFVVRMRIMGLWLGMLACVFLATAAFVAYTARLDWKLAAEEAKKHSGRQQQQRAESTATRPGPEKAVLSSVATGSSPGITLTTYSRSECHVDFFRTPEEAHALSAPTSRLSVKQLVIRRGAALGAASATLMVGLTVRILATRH

Compound	MATE1 ratio [1, 9]	MATE1 [1, 10]	MATE2K ratio ([2]; 2.5 μM, 1 min)	MATE2 [2, 11]	eliminated unchanged via the kidneys ([3]; human)	MATE2K Vmax ([5]; HEK293, 1 min, net uptake)	Km ([5]; HEK293, 1 min, net uptake) [µM]	MATE1 Vmax ([8]; HEK293, 1 min, net uptake)	Km ([8]; HEK293, 1 min, net uptake) [µM]	other results
N[C@@H](CC(=O)N1CCn2c(nnc2C(F)(F)F)C1)Cc1cc(F)c(F)cc1F [Sitagliptin]	4.17	4.17	2.77	2.77	more than 70%	–	–	–	–	MATE1 ratio ([1]; fold uptake over empty vector, 2.5 μM, 1 min, listed as sitagliptin): above 2
CN[C@@H]1CCc2[nH]c3ccc(C(N)=O)cc3c2C1 [Frovatriptan]	34.35	–	31.50	–	–	869 pmol × mg protein^–1 × min^–1	11.2	4568 pmol × mg protein^–1 × min^–1	70.4	Substrate specificity among MATE1, MATE2K, OCT1, OCT2 [4]: All four transporters; TS DPH hCMEC [6]: 0.83; TS MDAI hCMEC [7]: 0.88
Cc1ncc(C[n+]2csc(CCO)c2C)c(N)n1 [Thiamine]	–	33.42	–	10.63	–	109.2 pmol × mg protein^–1 × min^–1	17.3	599 pmol × mg protein^–1 × min^–1	17.2	MATE1 ratio in this study ([1]; Table S1, 2.5 μM, 1 min): 33.42; Substrate specificity among MATE1, MATE2K, OCT1, OCT2 [4]: All four transporters; MATE2K ratio in this study ([2]; Table S1, 2.5 μM, 1 min): 10.63
CC(C)NCC(O)c1ccc(NS(C)(=O)=O)cc1 (stereo not drawn) [Sotalol]	19.70	19.7	1.62	1.62	more than 70%	–	–	–	–	MATE1 ratio ([1]; fold uptake over empty vector, 2.5 μM, 1 min, listed as sotalol): above 2
Cc1ncc(CO)c(CN)c1O [Pyridoxamine]	2.68	2.68	1.36	1.36	–	989.5 pmol × mg protein^–1 × min^–1	1550	5442 pmol × mg protein^–1 × min^–1	1690	Substrate specificity among MATE1, MATE2K, OCT1, OCT2 [4]: MATE1 only
O=C(O[C@H]1C[C@H]2CC[C@@H](C1)[N+]21CCCC1)C(O)(c1ccccc1)c1ccccc1 [Trospium]	–	–	–	–	more than 70%	–	–	–	–	MATE1 [1]: 21.28; MATE1 ratio [1]: above 2; MATE1 ratio in this study [1]: 21.28; MATE2 [2]: 5.18; MATE2K ratio in this study [2]: 5.18
CC(C)NCC(O)COc1ccc(COCCOC(C)C)cc1 (stereo not drawn) [Bisoprolol]	–	–	–	–	50%	–	–	–	–	TS DPH hCMEC [6]: 0.32; TS MDAI hCMEC [7]: 0.35
Nc1ccn([C@H]2CC[C@@H](CO)O2)c(=O)n1 [Zalcitabine]	above 2	12.98	–	1.22	more than 70%	linear	–	10,171 pmol × mg protein^–1 × min^–1	1560	MATE1 ratio in this study ([1]; Table S1, 2.5 μM, 1 min): 12.98; MATE2K ratio in this study ([2]; Table S1, 2.5 μM, 1 min): 1.22
Nc1ccncc1N [Amifampridine]	17.06	–	7.01	–	more than 70%	–	–	–	–	MATE1 ratio ([1]; fold uptake over empty vector, 2.5 μM, 1 min, listed as amifampridine): above 2; MATE1 (uptake ratio) ([1]; 2.5 μM, 1 min): 17.06; MATE2 (uptake ratio) ([2]; 2.5 μM, 1 min): 7.01
CCN1CCCC1CNC(=O)c1cc(S(N)(=O)=O)ccc1OC (stereo not drawn) [Sulpiride]	–	–	–	–	–	–	22.8	–	16	MATE2K Vmax [5]: 1025 pmol × mg protein^–1 × min^–1; eliminated unchanged via the kidneys ([3]; in vivo): more than 70%; MATE1 Vmax [8]: 851 pmol × mg protein^–1 × min^–1
CNC(=C[N+](=O)[O-])NCCSCc1ccc(CN(C)C)o1 [Ranitidine]	18.91	18.91	8.62	8.62	more than 70%	–	–	–	–	MATE1 ratio ([1]; fold uptake over empty vector, 2.5 μM, 1 min, listed as ranitidine): above 2; TS DPH hCMEC [6]: 1.26; TS MDAI hCMEC [7]: 1.24
C[N@+]1(CC2CC2)CC[C@]23c4c5ccc(O)c4O[C@H]2C(=O)CC[C@@]3(O)[C@H]1C5 [Methylnaltrexone]	–	–	–	–	–	41.6 pmol × mg protein^–1 × min^–1	86.8	55.8 pmol × mg protein^–1 × min^–1	17.9	Substrate specificity among MATE1, MATE2K, OCT1, OCT2 [4]: All four transporters; TS DPH hCMEC [6]: 1.11; TS MDAI hCMEC [7]: 0.84
NC(N)=Nc1nc(CSCCC(N)=NS(N)(=O)=O)cs1 [Famotidine]	–	–	–	–	more than 70%	–	–	–	–	–
C#CCN[C@@H]1CCc2ccccc21 [Rasagiline]	1.18	1.18	2.16	2.16	–	linear	–	194 pmol × mg protein^–1 × min^–1	167	Substrate specificity among MATE1, MATE2K, OCT1, OCT2 [4]: specific for only OCT2 and MATE2K; TS DPH hCMEC [6]: 0.54; TS MDAI hCMEC [7]: 0.51
C[C@H]1N=C(N(C)C)N=C(N)N1 [Imeglimin]	18.76	–	4.59	–	more than 70%	2814 pmol × mg protein^–1 × min^–1	81.6	6242 pmol × mg protein^–1 × min^–1	58	MATE1 ratio in this study ([1]; Table S1, 2.5 μM, 1 min): 18.76; MATE1 ratio ([1]; fold uptake over empty vector, 2.5 μM, 1 min, listed as imeglimin): above 2; MATE2K ratio in this study ([2]; Table S1, 2.5 μM, 1 min): 4.59
C=CCN1CCCC1CNC(=O)c1cc2nn[nH]c2cc1OC (stereo not drawn) [Alizapride]	3.68	–	2.64	–	more than 70%	–	–	–	–	MATE1 ratio ([1]; fold uptake over empty vector, 2.5 μM, 1 min, listed as alizapride): above 2; MATE1 (uptake ratio) ([1]; 2.5 μM, 1 min): 3.68; MATE2 (uptake ratio) ([2]; 2.5 μM, 1 min): 2.64
CC[N+](C)(C)c1cccc(O)c1 [Edrophonium]	30.33	–	10.98	–	–	–	–	–	–	MATE1 ratio ([1]; fold uptake over empty vector, 2.5 μM, 1 min, listed as edrophonium): above 2; eliminated unchanged via the kidneys ([3]; in vivo): more than 70%
